This note sets out measurements from patent publication US10398725B2, “Ophthalmic compositions and methods of use” (Veloce BioPharma, LLC, priority 2015, dated 2019).

Each structure is given as a SMILES string.

Assay type in all cases: in vivo, human
Assay [1] deals with eyelid associated molluscum contagiosum. The experiment in a line: Example 21: patient with eyelid molluscum contagiosum. As to conditions: before the PVP-I/DMSO composition. The protocol: Eyelid Molluscum Contagiosum; Treated with 9% PVP-I in 39% USP Grade DMSO with 3% Hydroxyethylcellulose
This patient was suffering from an eyelid associated molluscum contagiosum. […] The process is often associated with pox virus infection of the epithelial layers. […] Cryotherapy with excision was eventually performed, however, the lesions recurred. Prepared was a composition as disclosed herein using 0.9% PVP-I in 39% DMSO with hydroxyethyl cellulose. The patient was treated by applying the solution topically to the eyelid and margin structures four times daily. […] The lesions had begun to involute and diminish in surface area.

The subject of assay [2] is Acanthamoeba corneal ulceration. The experiment in a line: Example 16: patient with Acanthamoeba corneal ulceration. The note with it: before the PVP-I/DMSO composition. From the text:
Acanthamoeba Corneal Ulceration; Treated with Aqueous 0.4% PVP-I in 39% USP Grade DMSO with Hydroxyethyl Cellulose
This patient was suffering from an Acanthamoeba corneal ulceration. In this type of infection there is often a history of contact lens use and home-made contact lens solutions, however, this is not a prerequisite. Acanthamoeba parasites are often introduced into the eye through a small break in the epithelium and gains foothold to the underlying structures. The patient endorses pain out of proportion with examination. […] The cornea contained multiple bullous lesions with enlarged corneal nerves. There was an overlying epithelial defect and faint ring-shaped infiltrate. The infiltrate had induced minimal stromalysis and the resultant cornea was not thinned. There was no hypopyon, however, cell and flare were present. Corneal cultures were taken, and Acanthamoeba species were identified on non-nutrient agar with E. coli overlay. […] Prepared was a composition as disclosed herein using 0.4% PVP-I in 39% DMSO with hydroxyethyl cellulose. The patient was treated by applying the solution topically to the eye six times daily. […] The corneal had begun the process of re-epithelialization and the ring ulcer began to lessen in intensity. […] A central corneal cicatrix was evident in the area of previous active infiltrate.

The test system of assay [3] is rosacea blepharoconjunctivitis. The assay can be described thus: Example 3B: person with rosacea blepharoconjunctivitis. The note with it: before the PVP-I/DMSO gel. From the text:
B. Rosacea Blepahritis; Treated with 1% PVP-I in 44% USP Grade DMSO with 4% Hydroxyethylcellulose in Water
A person with a past ocular history of glaucoma and pseudophakia presented with long standing ocular dryness, grittiness, periocular erythema and eyelid crusting. On facial inspection, nasal and facial telangiectasia with flushing were evident. Their topical medical regimen included Latanoprost 1 drop QHS OU, Brimonidine 1 drop BID OU, and Dorzolamide/Timolol 1 drop BID OU. The patient endorsed utilization of a variety of medicines and treatments to abate this condition, however, they were of little benefit. Failed therapies included topical steroids, antibiotics including azithromycin, combination medicines, and cyclosporine. Oral medicines including doxycycline and DHA/ALA/EPA were also ineffective.
Further towards the posterior tarsal area, dilated, engorged telangiectatic vessels were present. […] A diagnosis of rosacea blepharoconjunctivitis was made.
The patient was given a topical gel of 1% PVP-I in a dimethylsulfoxide (DMSO) vehicle that was prepared from a licensed compounding pharmacy. The treatment was administered twice daily and delivered by rubbing the gel onto the lash line and eyelid. […] Most prominently, much of the conjunctivitis, anterior lid erythema and thickening had reversed. […]

As to `O=C(O)c1ccccc1O` [salicylic acid], in assay [1], the “outcome of earlier therapies (patient history)” value (shortened to “outcome of earlier therapies”) is listed as “without benefit”.

Regarding `N=C(N)c1ccc(OCCCOc2ccc(C(=N)N)cc2)cc1` [propamidine], the “outcome of earlier therapies” value in assay [2] is on record as “without benefit”.

As for `CC(C)Cn1cnc2c(N)nc3ccccc3c21` [imiquimod], the “outcome of earlier therapies” value in assay [1] is on record as “without benefit”.

For `CC[C@H]1OC(=O)[C@H](C)[C@@H](O[C@H]2C[C@@](C)(OC)[C@@H](O)[C@H](C)O2)[C@H](C)[C@@H](O[C@@H]2O[C@H](C)C[C@H](N(C)C)[C@H]2O)[C@](C)(O)C[C@@H](C)CN(C)[C@H](C)[C@@H](O)[C@]1(C)O` [azithromycin], the “outcome of earlier therapies” value in assay [3] is on record as “Failed”.

Turning to `[H]/N=C(\N/C(=N/[H])NCCCCCCNC(=N)NC(=N)Nc1ccc(Cl)cc1)Nc1ccc(Cl)cc1` [chlorhexidine], the “outcome of earlier therapies” value in assay [2] is “without benefit”.
